ChEMBL document CHEMBL4130416, “Glycine-replaced derivatives of [Pro3,DLeu9]TL, a temporin L analogue: Evaluation of antimicrobial, cytotoxic and hemolytic activities” (Eur J Med Chem, 2017)
≈ marks a conversion by molar mass, not a printed value. Calls of active or inactive are those of the source. The rule behind the calls is not given here.

Experiments:
Candida albicans [1] = experiment: Antimicrobial activity against Candida albicans clinical isolate 2 after 18 to 20 hrs by microbroth dilution method; format: functional
[2] = Hemolytic activity against human erythrocytes at 25 uM after 40 mins relative to control; format: ADME, cell-based, Erythrocyte; details: read-out: Activity
HaCaT [3] = experiment: Cytotoxicity against human HaCaT cells at 12.5 uM after 24 hrs by MTT assay relative to control; format: cell-based
[4] = Hemolytic activity against human erythrocytes at 3.125 uM after 40 mins relative to control; format: ADME, cell-based, Erythrocyte; details: read-out: Activity
[5] = Hemolytic activity against human erythrocytes at 6.25 uM after 40 mins relative to control; format: ADME, cell-based, Erythrocyte; details: read-out: Activity
HaCaT [6] = experiment: Cytotoxicity against human HaCaT cells at 50 uM after 24 hrs by MTT assay relative to control; format: cell-based
[7] = test system: Staphylococcus epidermidis; experiment: Antimicrobial activity against Staphylococcus epidermidis ATCC 12228 assessed as membrane-perturbation measured every minute for 120 mins by SYTOX green fluorescence dye influx assay; format: functional, organism-based
Pseudomonas syringae = experiment: Antimicrobial activity against Pseudomonas syringae pv tabaci NCPPB 1918 after 18 to 20 hrs by microbroth dilution method; format: functional, Pseudomonas amygdali pv. tabaci
Escherichia coli [8] = experiment: Antimicrobial activity against multisensitive Escherichia coli clinical isolate 2 after 18 to 20 hrs by microbroth dilution method; format: functional
Pseudomonas aeruginosa [9] = experiment: Antimicrobial activity against Pseudomonas aeruginosa ATCC 27853 after 18 to 20 hrs by microbroth dilution method; format: functional
Pseudomonas aeruginosa [10] = experiment: Antimicrobial activity against multisensitive Pseudomonas aeruginosa after 18 to 20 hrs by microbroth dilution method; format: functional
Staphylococcus aureus [11] = experiment: Antimicrobial activity against methicillin resistant Staphylococcus aureus clinical isolate 1 after 18 to 20 hrs by microbroth dilution method; format: functional
Acinetobacter baumannii [12] = experiment: Antimicrobial activity against Acinetobacter baumannii ATCC 19606 assessed as induction of membrane-perturbation at MIC measured every minute for 120 mins by SYTOX green fluorescence dye influx assay; format: functional, organism-based; details: ATCC 19606 = CIP 70.34 = JCM 6841
[13] = test system: Staphylococcus epidermidis; experiment: Antimicrobial activity against Staphylococcus epidermidis ATCC 12228 after 18 to 20 hrs by microbroth dilution method; format: functional
Staphylococcus aureus [14] = experiment: Antimicrobial activity against methicillin resistant Staphylococcus aureus clinical isolate 2 after 18 to 20 hrs by microbroth dilution method; format: functional
HaCaT [15] = experiment: Cytotoxicity against human HaCaT cells at 25 uM after 24 hrs by MTT assay relative to control; format: cell-based
Candida albicans [16] = experiment: Antimicrobial activity against Candida albicans ATCC 10231 assessed as induction of membrane-perturbation at MIC measured every minute for 10 mins by SYTOX green fluorescence dye influx assay; format: functional, organism-based
Candida albicans [17] = experiment: Antimicrobial activity against Candida albicans ATCC 10231 after 18 to 20 hrs by microbroth dilution method; format: functional
[18] = Hemolytic activity against human erythrocytes at 50 uM after 40 mins relative to control; format: ADME, cell-based, Erythrocyte; details: read-out: Activity
[19] = Hemolytic activity against human erythrocytes at 12.5 uM after 40 mins relative to control; format: ADME, cell-based, Erythrocyte; details: read-out: Activity
Staphylococcus aureus [20] = experiment: Antimicrobial activity against macrolid resistant Staphylococcus aureus after 18 to 20 hrs by microbroth dilution method; format: functional
Staphylococcus aureus [21] = experiment: Antimicrobial activity against beta-lactamase resistant Staphylococcus aureus after 18 to 20 hrs by microbroth dilution method; format: functional
Candida albicans [22] = experiment: Antimicrobial activity against Candida albicans clinical isolate 1 after 18 to 20 hrs by microbroth dilution method; format: functional
Klebsiella pneumoniae = experiment: Antimicrobial activity against multisensitive Klebsiella pneumoniae after 18 to 20 hrs by microbroth dilution method; format: functional
Priestia megaterium = experiment: Antimicrobial activity against Bacillus megaterium Bm11 after 18 to 20 hrs by microbroth dilution method; format: functional
[23] = Metabolic stability in 90% human serum assessed as parent compound remaining at […] after 120 mins by RP-UHPLC analysis; format: ADME, cell-free; details: read-out: Stability
HaCaT [24] = experiment: Cytotoxicity against human HaCaT cells at 1.56 to 6.25 uM after 24 hrs by MTT assay; format: cell-based
Escherichia coli [25] = experiment: Antimicrobial activity against Escherichia coli D21 after 18 to 20 hrs by microbroth dilution method; format: functional
Staphylococcus aureus [26] = experiment: Antimicrobial activity against multisensitive Staphylococcus aureus after 18 to 20 hrs by microbroth dilution method; format: functional
Escherichia coli [27] = experiment: Antimicrobial activity against multisensitive Escherichia coli clinical isolate 1 after 18 to 20 hrs by microbroth dilution method; format: functional
Staphylococcus aureus [28] = experiment: Antimicrobial activity against Staphylococcus aureus Cowan I after 18 to 20 hrs by microbroth dilution method; format: functional
Pichia kudriavzevii = experiment: Antimicrobial activity against Candida krusei ATCC 6258 after 18 to 20 hrs by microbroth dilution method; format: functional
Acinetobacter baumannii [29] = experiment: Antimicrobial activity against Acinetobacter baumannii ATCC 19606 after 18 to 20 hrs by microbroth dilution method; format: functional; details: ATCC 19606 = CIP 70.34 = JCM 6841
HaCaT [30] = experiment: Cytotoxicity against human HaCaT cells at 6.25 uM after 24 hrs by MTT assay relative to control; format: cell-based

Compound: CC[C@H](C)C(NC(=O)[C@H](CCCNC(=N)N)NC(=O)[C@@H](CCCCN)NC(=O)[C@@H](CC(C)C)NC(=O)[C@H](Cc1ccccc1)NC(=O)[C@H](CCCCN)NC(=O)[C@H](CO)NC(=O)[C@H](Cc1ccccc1)NC(=O)[C@H](Cc1c[nH]c2ccccc12)NC(=O)[C@@H]1CCCN1C(=O)[C@@H](NC(=O)[C@@H](N)Cc1ccccc1)C(C)C)C(=O)N[C@@H](CC(C)C)C(N)=O (single isomer, unassigned)
- MIC (Candida albicans [1]): 12.5 µM (≈ 21 µg/mL)
- hemolysis at 40 min, 25 µM [2]: 5%
- Activity (HaCaT [3]): 0%
- hemolysis at 40 min, 3.125 µM [4]: 0%
- hemolysis at 40 min, 6.25 µM [5]: 1%
- Activity (HaCaT [6]): 87.9%
- Activity [7]: Active
- MIC (Pseudomonas syringae): 12.5 µM (≈ 21 µg/mL)
- MIC (Escherichia coli [8]): 25 µM (≈ 42 µg/mL)
- MIC (Pseudomonas aeruginosa [9]): 12.5 µM (≈ 21 µg/mL)
- MIC (Pseudomonas aeruginosa [10]): > 50 µM
- MIC (Staphylococcus aureus [11]): 25 µM (≈ 42 µg/mL)
- Activity (Acinetobacter baumannii [12]): Active
- MIC [13]: 3.12 µM (≈ 5.25 µg/mL)
- MIC (Staphylococcus aureus [14]): 12.5 µM (≈ 21 µg/mL)
- Activity (HaCaT [15]): 28.22%
- Activity (Candida albicans [16]): Active
- MIC (Candida albicans [17]): 1.56 µM (≈ 2.62 µg/mL)
- hemolysis at 40 min, 50 µM [18]: 7%
- hemolysis at 40 min, 12.5 µM [19]: 5%
- MIC (Staphylococcus aureus [20]): 25 µM (≈ 42 µg/mL)
- MIC (Staphylococcus aureus [21]): 25 µM (≈ 42 µg/mL)
- MIC (Candida albicans [22]): 12.5 µM (≈ 21 µg/mL)
- MIC (Klebsiella pneumoniae): 50 µM (≈ 84 µg/mL)
- MIC (Priestia megaterium): 3.12 µM (≈ 5.25 µg/mL)
- remaining at 2 h [23]: 40%
- Activity (HaCaT [24]): Non-Toxic
- MIC (Escherichia coli [25]): 12.5 µM (≈ 21 µg/mL)
- MIC (Staphylococcus aureus [26]): 12.5 µM (≈ 21 µg/mL)
- MIC (Escherichia coli [27]): 25 µM (≈ 42 µg/mL)
- MIC (Staphylococcus aureus [28]): 12.5 µM (≈ 21 µg/mL)
- MIC (Pichia kudriavzevii): 1.56 µM (≈ 2.62 µg/mL)
- MIC (Acinetobacter baumannii [29]): 6.25 µM (≈ 10.5 µg/mL)

Compound: CC[C@H](C)C(NC(=O)[C@H](CCCNC(=N)N)NC(=O)[C@H](CCCCN)NC(=O)[C@@H](CC(C)C)NC(=O)[C@H](Cc1ccccc1)NC(=O)[C@H](CCCCN)NC(=O)[C@H](CO)NC(=O)[C@H](Cc1ccccc1)NC(=O)[C@H](Cc1c[nH]c2ccccc12)NC(=O)[C@@H]1CCCN1C(=O)[C@@H](NC(=O)[C@@H](N)Cc1ccccc1)C(C)C)C(=O)N[C@@H](CC(C)C)C(N)=O (single isomer, unassigned)
- Activity (HaCaT [3]): 49.3%
- Activity (HaCaT [6]): 96.79%
- MIC (Pseudomonas syringae): 6.25 µM (≈ 10.5 µg/mL)
- MIC (Pseudomonas aeruginosa [9]): 12.5 µM (≈ 21 µg/mL)
- MIC [13]: 3.12 µM (≈ 5.25 µg/mL)
- Activity (HaCaT [15]): 66.86%
- MIC (Candida albicans [17]): 1.56 µM (≈ 2.62 µg/mL)
- MIC (Priestia megaterium): 3.12 µM (≈ 5.25 µg/mL)
- Activity (HaCaT [24]): Non-Toxic
- MIC (Escherichia coli [25]): 12.5 µM (≈ 21 µg/mL)
- MIC (Staphylococcus aureus [28]): 6.25 µM (≈ 10.5 µg/mL)
- MIC (Pichia kudriavzevii): 1.56 µM (≈ 2.62 µg/mL)
- MIC (Acinetobacter baumannii [29]): 3.12 µM (≈ 5.25 µg/mL)

Compound: CCCC[C@@H](NC(=O)[C@@H](CC(C)C)NC(=O)[C@H](Cc1ccccc1)NC(=O)[C@H](CCCCN)NC(=O)[C@H](CO)NC(=O)[C@H](Cc1ccccc1)NC(=O)[C@H](Cc1c[nH]c2ccccc12)NC(=O)[C@@H]1CCCN1C(=O)[C@@H](NC(=O)[C@@H](N)Cc1ccccc1)C(C)C)C(=O)N[C@@H](CCCNC(=N)N)C(=O)NC(C(=O)N[C@@H](CC(C)C)C(N)=O)[C@@H](C)CC (single isomer, unassigned)
- Activity (HaCaT [3]): 39.96%
- Activity (HaCaT [6]): 96.64%
- MIC (Pseudomonas syringae): 3.12 µM (≈ 5.2 µg/mL)
- MIC (Pseudomonas aeruginosa [9]): 50 µM (≈ 83.3 µg/mL)
- MIC [13]: 3.12 µM (≈ 5.2 µg/mL)
- Activity (HaCaT [15]): 72.81%
- MIC (Candida albicans [17]): 3.12 µM (≈ 5.2 µg/mL)
- Activity (HaCaT [30]): 15%
- MIC (Priestia megaterium): 1.56 µM (≈ 2.6 µg/mL)
- MIC (Escherichia coli [25]): 25 µM (≈ 41.6 µg/mL)
- MIC (Staphylococcus aureus [28]): 3.12 µM (≈ 5.2 µg/mL)
- MIC (Pichia kudriavzevii): 1.56 µM (≈ 2.6 µg/mL)
- MIC (Acinetobacter baumannii [29]): 6.25 µM (≈ 10.4 µg/mL)

Compound: H-FVQWFSKFLGRIL-NH2
- Activity [7]: Active
- Activity (Acinetobacter baumannii [12]): Active
- Activity (Candida albicans [16]): Active
